From patent US8779002B2, “Methods for treating a variety of diseases and conditions, and compounds useful therefor” (Salk Institute for Biological Studies, priority 2007, dated 2014)
Like-named read-outs stand apart in the source and are kept apart here.

Columns and labels:
JNK-1 = JNK-1 (Homo sapiens, UniProt P45983); assay: Protein kinase panel: JNK-1; format: biochemical; conditions: panel of 14 protein kinases
From the text: (§1) A panel of 14 protein kinases was screened against Cmpd CNB-001. […] In HT22 cells and primary cortical neurons, Cmpd CNB-001 blocked p38 and JNK phosphorylation caused by glutamate by about 30%, and inhibited cell death. The phosphorylation of the other tested kinases was not altered.

primary cortical neurons = assay: Trophic factor withdrawal (TFW) assay; format: cell-based, rat; conditions: Rattus norvegicus, Primary cortical neuron
Protocol: FIG. 1A illustrates the results of a trophic factor withdrawal assay. Primary cortical neurons are prepared from 18-day-old rat embryos, and cultured at low cell density 1×10^6/35 mm dish, in serum containing medium, with different compounds Viability is then assayed 2 days later using a fluorescent live-dead assay (Molecular Probes).
Primary cortical neurons can be prepared from 18-day-old embryos of Sprague-Dawley rats as described (Liu & Schubert, J. Neurochem., 1997, 69:2285-2293 and J. Neurochem., 1998, 71:2322-2329). Briefly, the cerebral cortex is dissected out under an anatomical microscope and is freed of meninges and blood vessels. The cortex is cut into small pieces and is then dissociated by trypsin digestion and passed through a pipette tip. Dissociated neurons are suspended in various media and plated on polylysine-coated 35 mm tissue culture dishes (e.g., 1×10^6 cells/dish). Several different culture conditions can be used as known in the art. Invention compounds can be added to cell culture dishes. Cell survival can be measured 1-2 days after compound administration.
A serum-containing medium can be used which includes a minimal essential medium (Sigma) containing 30 mM glucose, 2 mM glutamine, 1 mM pyruvate, penicillin (100 U/ml), streptomycin (100 μg/ml), and 10% fetal calf serum. At a plating density of 1×10^6 cells/dish, most neurons die after one week of culture in this medium. If plated at a density of 2×10^6 cells/dish, then most neurons survive. The cell density-dependent neuronal survival in this system is most likely dependent on the neurotrophic factors secreted by the neurons, not by the glia. The results are the same when glial proliferation is inhibited by cytosine arabinoside.
The structure-activity relationships of compounds according to the present invention can be determined by measuring trophic factor withdrawal in […] primary cortical neurons. As shown in FIG. 1A-FIG. 1D, compounds are added to low density primary cultures of E18 rat cortical neurons at the time of plating, and cell survival is determined two days later by a variety of methods.

p38 = p38 phosphorylation caused by glutamate; format: cell-based; conditions: HT22 cells and primary cortical neurons
From the text: as §1

JNK-3 = JNK-3 (Homo sapiens, UniProt P53779); assay: Protein kinase panel: JNK-3; format: biochemical; conditions: panel of 14 protein kinases
From the text: as §1

JNK = JNK phosphorylation caused by glutamate; format: cell-based; conditions: HT22 cells and primary cortical neurons
From the text: as §1

JNK-2 = JNK-2 (Homo sapiens, UniProt P45984); assay: Protein kinase panel: JNK-2; format: biochemical; conditions: panel of 14 protein kinases
From the text: as §1

Amyloid = Amyloid dissociation; design: key: + = positive result or enzyme activation
Rabbit stroke = Rabbit stroke model; design: key: + = positive result or enzyme activation; conditions: in vivo
[1] = Plasma concentration and brain content after a single oral dose by gavage; format: in vivo, mouse; conditions: for concentration at 0 hr / concentration at 1 hr / concentration at 2 hr: female, mouse, BALB/c mice
Protocol: The pharmacokinetic properties of a single oral dose of exemplary compounds according to the invention, i.e., Cmpd 11-001 and Cmpd J147, are studied in 10-week old female BALB/c mice. Cmpd 11-001 or J147 are emulsified in 2.5% carboxymethyl cellulose at a concentration of 20 mg/ml and administered by gavage at a dosage of 400 mg/kg body weight or 200 mg/kg body weight, respectively. The mice are then sacrificed at various intervals after administration (0, 1 hr, 2 hr, 4 hr, and 6 hr).
Plasma is obtained from blood (mixed with K3EDTA to prevent coagulation) by centrifugation at 4,300 g for 10 min, extracted twice with ethyl acetate/propanol (9:1, v/v). The extracts are centrifuged at 5,000 g for 10 min to form aqueous/organic layers. The organic layer containing Cmpd 11-001 is centrifuged at 20,000 g for 10 min to sediment particles. The extraction recovery from plasma is approximately 90%. Thirty μl thereof were analyzed by HPLC equipped with a C18 reversed phase column—Cmpd 11-001 is detected at 330 nm. The elution solvent system is 50% acetonitrile, 50% water and 1 g/L trifluoroacetic acid with a flow rate of 1 ml/min.
To study the distribution of compounds according to the invention in brain at various time intervals (0, 1 hr, 2 hr, 4 hr, and 6 hr) after gavage (400 mg/kg or 200 mg/kg as noted above), the mice are anesthetized with cloral hydrate and perfused through the heart with phosphate buffered saline (PBS) to remove blood in the brain. The mice are then decapitated, the brains removed, and quickly frozen and stored at −80° C. before further analysis. To measure the level of invention compound in the brain, weighed brain pieces are homogenized by sonication in 3 volumes of PBS. The homogenates are then extracted and measured by HPLC as described above.

[2] = test system: double transgenic (mutated PS1 and APP) Alzheimer's mouse model; assay: Morris Water Maze in Alzheimer's mouse model; format: in vivo; conditions: in the food for 4 months at 100 ppm
Protocol: FIG. 7 illustrates that […] improves spatial learning and memory in the Morris Water Maze. A circular water tank four feet in diameter, containing water at 26-27° C., is made opaque with white pigment, and a platform placed in the NW quadrant. Mice were randomly introduced to the tank facing the wall in one of the other quadrants for a trial of 50 s or until they found the platform. Upon reaching the platform, or at the end of the 50 s, the mice were placed on the platform, the mice were left on the platform for 15 s. There were four trials per mouse each day for seven consecutive days. The data are presented as the average time to reach the platform (escape latency) of the 4 daily trials for each group of mice. There are 3 groups of 5 mice each. One is wild type (circles), another is a double transgenic (mutated PS1 and APP) Alzheimer's mouse model (rectangle), and the third is the AD mouse plus J147 that has been in the food for 4 months at 100 ppm (diamond).

[3] = Cell Culture (Table 2), read-out: Trophic Factor Withdrawal
[4] = brain, 200 mg/kg single oral dose by gavage, read-out: Brain content
[5] = plasma, 200 mg/kg single oral dose by gavage, read-out: Plasma concentration

Sequence of JNK-2 (P45984 whole entry, species assumed): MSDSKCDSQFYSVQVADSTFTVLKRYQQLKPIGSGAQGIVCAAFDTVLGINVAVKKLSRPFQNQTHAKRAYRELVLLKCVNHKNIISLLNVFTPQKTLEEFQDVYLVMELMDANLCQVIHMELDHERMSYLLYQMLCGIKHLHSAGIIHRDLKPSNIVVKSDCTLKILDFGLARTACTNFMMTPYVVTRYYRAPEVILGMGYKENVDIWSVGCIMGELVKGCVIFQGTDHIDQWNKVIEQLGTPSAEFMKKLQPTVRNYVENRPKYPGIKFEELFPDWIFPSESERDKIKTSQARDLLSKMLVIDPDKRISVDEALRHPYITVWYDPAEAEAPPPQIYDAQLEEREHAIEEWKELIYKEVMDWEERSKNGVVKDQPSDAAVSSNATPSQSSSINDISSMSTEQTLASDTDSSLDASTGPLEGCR
Sequence of JNK-3 (P53779 whole entry, species assumed): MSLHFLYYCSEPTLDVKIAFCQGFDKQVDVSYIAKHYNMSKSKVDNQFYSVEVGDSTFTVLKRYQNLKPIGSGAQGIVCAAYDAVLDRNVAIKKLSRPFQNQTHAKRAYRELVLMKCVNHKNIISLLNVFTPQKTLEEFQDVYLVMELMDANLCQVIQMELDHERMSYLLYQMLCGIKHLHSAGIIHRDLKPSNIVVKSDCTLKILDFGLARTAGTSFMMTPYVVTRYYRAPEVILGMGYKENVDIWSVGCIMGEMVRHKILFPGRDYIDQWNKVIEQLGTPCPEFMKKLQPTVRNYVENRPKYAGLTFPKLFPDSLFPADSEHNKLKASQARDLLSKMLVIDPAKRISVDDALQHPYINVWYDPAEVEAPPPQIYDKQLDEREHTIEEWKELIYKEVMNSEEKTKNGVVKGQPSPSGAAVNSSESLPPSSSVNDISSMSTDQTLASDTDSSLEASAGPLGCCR
Sequence of JNK-1 (P45983 whole entry, species assumed): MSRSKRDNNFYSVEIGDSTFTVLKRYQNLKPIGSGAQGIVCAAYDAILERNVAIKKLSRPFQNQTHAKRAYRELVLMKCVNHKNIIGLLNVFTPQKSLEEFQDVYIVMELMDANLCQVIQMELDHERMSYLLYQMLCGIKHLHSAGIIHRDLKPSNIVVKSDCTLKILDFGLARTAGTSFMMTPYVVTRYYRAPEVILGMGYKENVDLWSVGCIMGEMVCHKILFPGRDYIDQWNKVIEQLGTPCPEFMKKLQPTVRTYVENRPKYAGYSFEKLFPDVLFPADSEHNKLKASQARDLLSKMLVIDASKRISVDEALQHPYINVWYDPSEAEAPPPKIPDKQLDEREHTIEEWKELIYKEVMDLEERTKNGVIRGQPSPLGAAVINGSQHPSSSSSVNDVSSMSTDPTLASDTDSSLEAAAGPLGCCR

Structure (SMILES)	Inhibition of kinase (JNK-1)	EC50 (primary cortical neurons; [3]) [µM]	Block of p38 phosphorylation caused by glutamate (p38)	Inhibition of kinase (JNK-3)	Block of JNK phosphorylation caused by glutamate (JNK)	Inhibition of kinase (JNK-2)	Amyloid Dissociation (Amyloid)	Animal Models, Rabbit stroke (Rabbit stroke)	EC50 (primary cortical neurons; Trophic factor withdrawal assay, read-out: TFW EC50) [µM]	Time at which maximum plasma concentration is reached after administration ([1]; 200 mg/kg single oral dose by gavage, mice)	concentration at 0 hr [1, 4] [ng/g]	concentration at 1 hr [1, 4] [ng/g]	concentration at 2 hr [1, 4] [ng/g]	concentration at 0 hr [1, 5] [µg/mL]	concentration at 1 hr [1, 5] [µg/mL]	concentration at 2 hr [1, 5] [µg/mL]	Retention in the brain ([1]; relative to 11-011, after oral gavage in mice)	Deficit in memory of AD mice relative to wild type (escape latency) [2]
COc1cc(/C=C/c2cc(/C=C/c3ccc(O)c(OC)c3)n(-c3ccccc3)n2)ccc1O [CNB-001]	None of the other enzymes that were assayed, including JNK-1 or JNK-2, were affected	0.5	about 30%	partially inhibited	about 30%	None of the other enzymes that were assayed, including JNK-1 or JNK-2, were affected	+	+	–	–	–	–	–	–	–	–	–	–
COc1cccc(/C=N/N(C(=O)C(F)(F)F)c2ccc(C)cc2C)c1 [Compound J147]	–	0.01	–	–	–	–	–	–	0.05	about 1 hr	0	3900	2800	0	5.6	0.3	improved ability to be retained in the brain	corrected
